US20110318272A1, “PESTICIDAL MIXTURES GIVING S[…]” (priority 2010, published 2011)
“Also recorded” adds a separate entry of the source. Read-outs that look alike come from different tables or passages of the source.

How the values were obtained:
Tetranychus urticae = assay: Leaf disc track-sprayer bioassay against red spider mite; assay type: in vivo; conditions: for Concentration effect ca LD25 3DAA / Concentration effect ca LD50 3DAA: T. urticae; for activity against T. urticae when applied alone: range-finding assay
Method: Test arenas consisted of excised leaf discs of the host plant Phaseolus vulgaris infested with the target organism, Tetranychus urticae. A track sprayer was used to spray the test solutions at an application volume of 200 L/ha. Assessment of mortality (survival), any other sub lethal effects and phytotoxicity were carried out at 24 hours and 72 hours post application (3DAA).

Trialeurodes sp. = assay: Field study, adult whitefly on zucchini; assay type: in vivo; conditions: FIG. 12, imidacloprid alone at N/2 dilution
Method: (§1) For the field experiments described in Examples 14-16, the numbers of target organisms on host plants were assessed before treatment and after treatment.
Field studies as described below were carried out to determine the efficacy of BUGOIL® alone, lambda cyhalothrin alone, imidacloprid alone, abamectin alone, and mixtures of BUGOIL® with lambda cyhalothrin, imidacloprid, or abamectin, for control of adult whiteflies of different whitefly species, on zucchini and cucumber. In the following studies, the dose (N) is the label dose for each product, expressed in concentration (grams active ingredient) per liter of spray mixture (a.i.)/1).

Empoasca biggutula = assay: Field study, leafhopper on eggplant; assay type: in vivo
Method: as §1
(§2) Field studies as described below were carried out to determine the efficacy of BUGOIL®, lambda cyhalothrin, imidacloprid, and abamectin, alone and in mixtures with BUGOIL®, for control of the whitefly Bemisia tabaci, the leafhopper Empoasca biggutula, the aphid Aphis gosspyii, the shoot/fruit borer Leucinodes orbonalis and the cutworm Spodoptera litura on the eggplant cultivar “Casino” (Solanum melongena cv Casino). In the following studies, the dose (N) is the label dose for each product, expressed in concentration (grams active ingredient) per liter of spray mixture (a.i.)/l).
(§3) Imidacloprid is formulated as CLIMAX® (CLIMAX® 200 SL, Bayer CropScience, Inc., Batch No. 81001025, Production Date Feb. 22, 2005, FPA Reg. No. 284-240-0761 where the dose prior to dilution=N=label dose=0.15 g (a.i.)/l.
(§4) Abamectin is formulated as AGRI-MEK® (AGRI-MEK® 1.8 EC, Syngenta Phillipines, Inc., FPA Reg. No. 011-234-0791), where the dose prior to dilution=N=label dose=0.018 g (a.i.)/l.

Bemisia tabaci = assay: Field study, adult whitefly on eggplant; assay type: in vivo; conditions: over a 14 day test period, product alone
Method: as §1, §2, §3

Spodoptera litura = assay: Field study, cutworm on eggplant; assay type: in vivo; conditions: 7 DAA
Method: as §1, §2
Lambda cyhalothrin is formulated as Karate® (KARATE® with Zeon Technology, Syngenta Phillipines, Inc., Batch No. JAK8,18179, Production Date Nov. 11, 2008, Phillipines Department of Agriculture, Fertilizer and Pesticides Authority (FPA) Reg. No. 011-204-0396), where the dose prior to dilution=N=label dose=0.8 g (a.i.)/l (rated adapted to lepidopterian and leafhopper pests).
as §3, §4

Myzus persicae = conditions: for Concentration effect ca LD25 3DAA: M. persicae; for aphicidal activity against M. persicae when applied alone: range-finding assay; for pesticidal activity against M. persicae, product alone in mixture study: alone at rate taken as ca. LD25 (BUGOIL 10 mL/L, imidacloprid 0.1, indoxacarb 100, spinosad 1 g (a.i.)/ha)
Method: Test arenas consisted of excised leaf discs of the host plant infested with the target organism.
Test arenas consisted of excised leaf discs of the host plant Brassica rapa chinensis infested with the target organism, Myzus persicae. A track sprayer was used to spray the test solutions at an application volume of 200 L/ha. Assessment of mortality (survival), any other sub lethal effects and phytotoxicity were carried out at 24 hours and 72 hours post application (3DAA).

[1] = system: sucking insect pests (whitefly, leafhoppers and aphids); assay: Field study, sucking insect pests on eggplant; assay type: in vivo; conditions: abamectin as AGRI-MEK 1.8 EC, mixtures at reduced rates, sucking insect and lepidopteran pests
Method: as §1, §2

[2] = 72 hours, *not necessarily at the LD25 level, little or no response to the dose range
[3] = 72 hours, *not necessarily at the LD50 level, little or no response to the dose range
[4] = alone at recommended application rate (N)

Molecule	Concentration effect ca LD25 3DAA (Tetranychus urticae; [2]) [g a.i./ha]	Concentration effect ca LD50 3DAA (Tetranychus urticae; [3]) [g a.i./ha]	activity against T. urticae when applied alone (Tetranychus urticae; 72 hours)	control of cutworm, S litura (Spodoptera litura; [4])	Concentration effect ca LD25 3DAA (Myzus persicae; 72 hours after application) [g a.i./ha]	aphicidal activity against M. persicae when applied alone (Myzus persicae; 72 hours)	Concentration effect ca LD25 3DAA (Tetranychus urticae; 72 hours after application) [g a.i./ha]	Concentration effect ca LD50 3DAA (Tetranychus urticae; 72 hours after application) [g a.i./ha]	Concentration effect ca LD25 3DAA (Myzus persicae; [2]) [g a.i./ha]	pesticidal activity against M. persicae, product alone in mixture study (Myzus persicae; 72 hours)	also measured
O=[N+]([O-])NC1=NCCN1Cc1ccc(Cl)nc1 [imidacloprid, (2E)-1-[(6-chloro-3-pyridinyl)methyl]-N-nitro-2-imidazolidinimine]	~100	~400	minimal activity	around 60%	~0.1	active	–	–	–	–	control of adult whiteflies (Trialeurodes sp.): 30-40%; control of leafhoppers (Empoasca biggutula; 1 HAA, imidacloprid alone at half the normal rate (½ N)): 37%; control of adult whitefly, B. tabaci (Bemisia tabaci): ≤ 50%; mortality rates (Myzus persicae; range finder assay, concentrations of 1 g a.i./ha and above): greater than 90%
CC1(C)[C@H](C(=O)O[C@H](C#N)c2cccc(Oc3ccccc3)c2)[C@@H]1/C=C(\Cl)C(F)(F)F (racemic) [lambda-cyhalothrin, Lambda-cyhalothrin]	–	–	active	around 60%	~0.01	high aphicidal activity	~0.05	~0.1	–	–	pesticidal activity against T. urticae in mixture study (Tetranychus urticae; FIG. 4B, BUGOIL at ca. LD25 (5 mL/L), lambda-cyhalothrin at ca. LD25 (0.05 g (a.i.)/ha), mixtures Treatments 3, 4, 5, 7, 8, 72 hours): showed pesticidal activity
Spinosad	–	–	a dose response to spinosad was observed	–	–	variable aphicidal activity	~10	~50	~10	no measurable pesticidal activity	Observed mean % mortality of T urticae (Tetranychus urticae; 10 g spinosad/L alone): 8%
COC(=O)N(C(=O)N1CO[C@@]2(C(=O)OC)Cc3cc(Cl)ccc3C2=N1)c1ccc(OC(F)(F)F)cc1 [indoxacarb, methyl (4aS)-7-chloro-2,5-dihydro-2-[[(methoxycarbonyl)[4-(trifluoromethoxy)phenyl]amino]carbonyl] indeno[1,2-e][1,3,4]oxadiazine-4a(3H)-carboxylate]	~100	~400	minimal activity; also recorded: not shown to be active	–	–	little aphicidal activity	–	–	~100	did not have measurable pesticidal activity	–
Abamectin	–	–	active	–	~5	active	~0.025	~0.040	–	–	Observed mean % mortality of T urticae (Tetranychus urticae; 0.25 g abamectin/L alone): 10%; Concentration effect ca LD50 3DAA (Tetranychus urticae; 72 hours after application, listed as Abamectin (Vertan)): ~0.04 g a.i./ha; control of leafhopper E. biggutula (Empoasca biggutula; 3 days after application 1, BUGOIL alone at 5 mL/L): 78%; control of leafhopper E. biggutula (Empoasca biggutula; 3 days after application 2, BUGOIL alone at 5 mL/L): 66%; control of leafhopper E. biggutula (Empoasca biggutula; 3 days after application 3, BUGOIL alone at 5 mL/L): 49%; control of leafhopper E biggutula (Empoasca biggutula; single application, 3 days after application): around 80%; control of cutworm, S litura (Spodoptera litura; abamectin alone): 70%; control of eggplant pests [1]: good effects; mortality rate (Myzus persicae; applied as VERTAN at LD25 (5 g (a.i.)/ha) or above, 72 hours): ~100%
